Experimental findings from ChEMBL document CHEMBL1201862, “PubChem BioAssay data set” (2004) are described below.

The structures appear in SMILES notation.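 A five-concentration, 48-hour dose response in 96-well plates underlies each endpoint, interpolated linearly between surrounding concentrations. Abbreviation: GI50, concentration required for 50% inhibition of growth.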 The source made the active and inactive calls. Cut-off read from the data, not from the text of the source: active = GI50 up to about 1.1 µM and inactive = higher.

Some test systems named below: IGROV-1; SF-268; KM12; OVCAR-3; NCI-H460; HCC 2998; RPMI-8226; CCRF-CEM; HL-60; SN12C; MOLT-4; Malme-3M; EKVX; LOX IMVI; HCT-116; UO-31; U-251; A498; HOP-92.
Test in all cases: NCI anticancer screen, dose series, 48 h

With `COC(=O)/C(C#N)=C1\CCC(Nc2cccc(C(F)(F)F)c2)N1C` (stereo unspecified), the GI50 was > 100 µM (inactive) with IGROV-1; > 100 µM (inactive) in the experiment with SF-268; 59.6 µM (inactive) in the experiment with KM12; > 100 µM (inactive) in the experiment on OVCAR-3; > 100 µM (inactive) in the experiment on NCI-H460; > 100 µM (inactive) in the experiment with HCC 2998. For the same compound, the GI50 in the experiment with RPMI-8226 is > 100 µM (inactive); in the experiment with CCRF-CEM it was > 100 µM (inactive); in the experiment with HL-60, 61.7 µM (inactive); in the experiment with SN12C, > 100 µM (inactive); in the experiment on MOLT-4, 51.6 µM (inactive); in the experiment on Malme-3M, > 100 µM (inactive). In addition, the GI50 in the experiment on EKVX was > 100 µM (inactive); in the experiment with LOX IMVI it was > 100 µM (inactive); in the experiment on HCT-116, > 100 µM (inactive); in the experiment on UO-31 it was 63.1 µM (inactive); with U-251, > 100 µM (inactive).
Turning to `COc1cccc2cc(C)c(C(=O)c3ccccc3)nc12`, the GI50 in the experiment on IGROV-1, with SF-268, in the experiment with KM12, in the experiment with OVCAR-3, in the experiment on HCC 2998 and in the experiment on RPMI-8226 was > 100 µM (inactive) throughout. Besides, the GI50 with CCRF-CEM, in the experiment with SN12C, with MOLT-4, in the experiment on Malme-3M, in the experiment with EKVX and in the experiment on LOX IMVI was > 100 µM (inactive) in each case. The GI50 in the experiment with HCT-116, with UO-31 and with U-251 was > 100 µM (inactive) throughout.
Consider `NC(CSSCC(N)Cc1ccccc1)Cc1ccccc1` (stereo unspecified), for which the GI50 is > 100 µM (inactive) with IGROV-1; 49.4 µM (inactive) with SF-268; 30.2 µM (inactive) in the experiment with KM12; 33 µM (inactive) with OVCAR-3; 40.8 µM (inactive) in the experiment on NCI-H460; > 100 µM (inactive) with HCC 2998. Further, the GI50 with RPMI-8226 was 35.3 µM (inactive); with CCRF-CEM, 32.9 µM (inactive); in the experiment with HL-60, 32.7 µM (inactive); with SN12C, 37.9 µM (inactive); with MOLT-4, 30.1 µM (inactive); in the experiment on A498, > 100 µM (inactive). Further, the GI50 was 57.3 µM (inactive) with Malme-3M; 47.5 µM (inactive) in the experiment on EKVX; 29.7 µM (inactive) in the experiment on LOX IMVI; 35.2 µM (inactive) in the experiment with HCT-116; > 100 µM (inactive) with UO-31; 84.1 µM (inactive) with U-251.
Regarding `O=C(NO)C12C3C4C1C1C2C3C41C(=O)NO` (stereo unspecified), the GI50 in the experiment on SF-268, with KM12, in the experiment on OVCAR-3, in the experiment with NCI-H460, in the experiment with HCC 2998 and with RPMI-8226 was > 100 µM (inactive) throughout. In addition, the GI50 in the experiment on CCRF-CEM, with HL-60, in the experiment on SN12C, in the experiment with MOLT-4, in the experiment with A498 and in the experiment with Malme-3M was > 100 µM (inactive) throughout. The GI50 with EKVX, in the experiment on LOX IMVI, in the experiment on HCT-116, in the experiment on UO-31 and in the experiment with U-251 was > 100 µM (inactive) each time.
Turning to `COC(=O)c1cc(=O)nc2cc3cccccc3n12`, the GI50 is > 100 µM (inactive) with IGROV-1; > 100 µM (inactive) in the experiment on KM12; > 100 µM (inactive) in the experiment with OVCAR-3; 59 µM (inactive) with NCI-H460; > 100 µM (inactive) in the experiment with HCC 2998; > 100 µM (inactive) in the experiment with RPMI-8226. Further, the GI50 with CCRF-CEM, in the experiment with HL-60, in the experiment with SN12C, with MOLT-4, in the experiment with A498 and with Malme-3M was > 100 µM (inactive) throughout. In addition, the GI50 with EKVX, with LOX IMVI, with HCT-116, with UO-31 and in the experiment with U-251 was > 100 µM (inactive) throughout.
For `COc1c(C)cc2c(c1O)C1C3[C@H]4SC[C@@]5(NCCC6=C5NC5C=CC=CC65)C(=O)OCC(c5c6c(c(C)c(OC(C)=O)c54)OCO6)N3[C@@H](O)C(C2)N1C` (stereo partly specified), the GI50 with IGROV-1, in the experiment on SF-268, in the experiment on OVCAR-3, in the experiment on NCI-H460, in the experiment with HCC 2998 and with RPMI-8226 was < 0.01 µM (active) in each case. Also, the GI50 in the experiment with CCRF-CEM, in the experiment on HL-60, with SN12C, in the experiment on MOLT-4, with A498 and with Malme-3M was < 0.01 µM (active) each time. The GI50 in the experiment on EKVX was 0.0297 µM (active); in the experiment with LOX IMVI, < 0.01 µM (active); in the experiment with HCT-116, < 0.01 µM (active); in the experiment on UO-31, < 0.01 µM (active); with U-251 it was < 0.01 µM (active).
Consider `O=C1CC(c2c[nH]c3ccccc23)C(=O)N1` (stereo unspecified), for which the GI50 in the experiment with IGROV-1, with KM12, in the experiment with OVCAR-3, in the experiment on NCI-H460, in the experiment with HCC 2998 and with RPMI-8226 was > 100 µM (inactive) each time. The GI50 in the experiment on CCRF-CEM, in the experiment on HL-60, with MOLT-4, with A498, in the experiment on Malme-3M and in the experiment on EKVX was > 100 µM (inactive) throughout. For the same compound, the GI50 with HCT-116, in the experiment on UO-31 and in the experiment on U-251 was > 100 µM (inactive) in each case.
On to `COCC1C(=O)c2cc3c(cc2C12C=CC1(C=C2)OCCO1)OCO3` (stereo unspecified), for which the GI50 is 15.4 µM (inactive) with IGROV-1; 3.86 µM (inactive) in the experiment on SF-268; 4.57 µM (inactive) with KM12; 13.7 µM (inactive) in the experiment with OVCAR-3; 13.8 µM (inactive) in the experiment with NCI-H460; 1.43 µM (inactive) in the experiment with RPMI-8226. The GI50 in the experiment with CCRF-CEM was 0.583 µM (active); with HL-60, 2.09 µM (inactive); in the experiment on SN12C it was 10.9 µM (inactive); in the experiment with MOLT-4, 1.65 µM (inactive); with Malme-3M it was 13.8 µM (inactive); in the experiment with EKVX, 16.6 µM (inactive). Also, the figures for the GI50 in the experiment with HCT-116, with U-251 and in the experiment on HOP-92 were 2.21 µM (inactive), 3.67 µM (inactive) and 14.5 µM (inactive), respectively.
Regarding `N#CC1CCCCOCCOCCOCCOCCOCCCCCC1=O` (stereo unspecified), the GI50 in the experiment on IGROV-1, with SF-268, in the experiment with KM12, with OVCAR-3, in the experiment on NCI-H460 and with HCC 2998 was > 100 µM (inactive) in each case. Also, the GI50 in the experiment with RPMI-8226, with CCRF-CEM, with HL-60, with SN12C, in the experiment with MOLT-4 and with A498 was > 100 µM (inactive) in each case. In addition, the GI50 with Malme-3M, in the experiment on EKVX, with LOX IMVI, in the experiment on HCT-116, in the experiment with UO-31 and in the experiment on U-251 was > 100 µM (inactive) each time.
On to `COc1ccc(NC(=O)CC/C(CC(=O)c2ccco2)=N/NC(=O)C(N)=O)cc1`, for which the GI50 is > 100 µM (inactive) with IGROV-1; 68.9 µM (inactive) with SF-268; > 100 µM (inactive) in the experiment on KM12; 46 µM (inactive) in the experiment on OVCAR-3; > 100 µM (inactive) in the experiment on NCI-H460; > 100 µM (inactive) in the experiment with HCC 2998. Also, the GI50 is 33.8 µM (inactive) with RPMI-8226; 63.5 µM (inactive) in the experiment on CCRF-CEM; 36 µM (inactive) with HL-60; > 100 µM (inactive) in the experiment on SN12C; 46.9 µM (inactive) in the experiment on MOLT-4; 76.4 µM (inactive) in the experiment on A498. Further, the GI50 in the experiment on Malme-3M was 98.9 µM (inactive); in the experiment with EKVX, > 100 µM (inactive); in the experiment with LOX IMVI, > 100 µM (inactive); in the experiment on UO-31 it was > 100 µM (inactive).
On to `Cc1cn(C2CC(N(O)Cc3ccccc3)C(CO)O2)c(=O)[nH]c1=O` (stereo unspecified), for which the GI50 in the experiment on IGROV-1, in the experiment with SF-268, in the experiment on KM12, in the experiment on OVCAR-3, with NCI-H460 and with HCC 2998 was > 100 µM (inactive) in each case. For the same compound, the GI50 with RPMI-8226, with CCRF-CEM, with HL-60, with SN12C, in the experiment with MOLT-4 and in the experiment with EKVX was > 100 µM (inactive) throughout. In addition, the GI50 in the experiment on LOX IMVI, in the experiment on HCT-116, with UO-31 and in the experiment on U-251 was > 100 µM (inactive) throughout.
With `Cc1cc(C)nc(NS(=O)(=O)c2ccc(Nc3c4ccccc4nc4c(C(=O)NCCN(C)C)ccc(Cl)c34)cc2)n1`, the GI50 in the experiment on IGROV-1 is 2.06 µM (inactive); with SF-268, 1.51 µM (inactive); with KM12, 1.7 µM (inactive); in the experiment with OVCAR-3, 7.64 µM (inactive); with NCI-H460, 0.39 µM (active); with HCC 2998 it was 13.8 µM (inactive). Besides, the GI50 in the experiment on CCRF-CEM is 1.31 µM (inactive); with HL-60 it was 1.44 µM (inactive); in the experiment on SN12C, 1.45 µM (inactive); in the experiment on MOLT-4, 0.255 µM (active); in the experiment on EKVX, 4.4 µM (inactive); in the experiment on LOX IMVI, 0.711 µM (active). Further, the GI50 in the experiment with HCT-116 was 0.798 µM (active); in the experiment on UO-31 it was 1.71 µM (inactive); in the experiment with U-251, 1.66 µM (inactive).
